Measured values reported in ChEMBL document CHEMBL3826962, “Synthesis, biological evaluation and molecular docking of 2-phenyl-benzo[d]oxazole-7-carboxamide derivatives as potential Staphylococcus aureus Sortase A inhibitors” (Bioorg Med Chem Lett, 2016).

Assay: Inhibition of Staphylococcus aureus sortase A using Abz-LPETG-Dap(DNP)-NH2 as substrate preincubated for 1 hr followed by substrate addition by FRET assay

Row | Compound | IC50
1 | CC(C)CNC(=O)c1cccc2nc(-c3ccc(COC(=O)Cc4ccc([N+](=O)[O-])c(O)c4)cc3)oc12 | 87.4 µM
2 | CCCCNCc1ccc(-c2nc3cccc(C(=O)NCC(C)C)c3o2)cc1 | 136 µM
3 | CCCCNC(=O)c1cccc2nc(-c3ccc(COC(=O)Cc4ccc(O)cc4)cc3)oc12 | 181 µM
4 | O=C(OCc1ccc(-c2nc3ccccc3o2)cc1)c1cccc(O)c1 | > 200 µM
5 | CCCCNC(=O)c1cccc2nc(-c3ccc(COC(=O)c4cccc(O)c4)cc3)oc12 | 161 µM
6 | CC(C)CNC(=O)c1cccc2nc(-c3ccc(COC(=O)Cc4ccc(O)cc4)cc3)oc12 | 73.2 µM
7 | CCCCNC(=O)c1cccc2nc(-c3ccc(COC(=O)/C=C/c4ccc(O)cc4)cc3)oc12 | 184 µM
8 | CC(C)CNC(=O)c1cccc2nc(-c3ccc(COC(=O)c4ccc(O)c(O)c4O)cc3)oc12 | 19.8 µM
9 | COc1ccc(NCc2ccc(-c3nc4cccc(C(=O)NCC(C)C)c4o3)cc2)cc1 | 65.5 µM
10 | CC(C)CNC(=O)c1cccc2nc(-c3ccc(COC(=O)c4ccc(O)c(O)c4)cc3)oc12 | 20.6 µM
11 | CC(C)CNC(=O)c1cccc2nc(-c3ccc(CNCc4ccccc4)cc3)oc12 | 128 µM
12 | CC(C)CNC(=O)c1cccc2nc(-c3ccc(COC(=O)Cc4cccc(O)c4)cc3)oc12 | 81.4 µM
13 | CC(C)CNC(=O)c1cccc2nc(-c3ccc(COC(=O)Cc4ccc(O)c(O)c4)cc3)oc12 | 64.4 µM
14 | CCCCNC(=O)c1cccc2nc(-c3ccc(COC(=O)Cc4cccc(O)c4)cc3)oc12 | 177 µM
15 | CC(C)NC(=O)c1cccc2nc(-c3ccc(COC(=O)Cc4ccc(O)cc4)cc3)oc12 | 116 µM
16 | CC(C)CNC(=O)c1cccc2nc(-c3ccc(COC(=O)c4ccccc4)cc3)oc12 | 161 µM
17 | O=C(Cc1cccc(O)c1)OCc1ccc(-c2nc3ccccc3o2)cc1 | > 200 µM
18 | CC(C)CNC(=O)c1cccc2nc(-c3ccc(COC(=O)/C=C/c4ccc(O)cc4)cc3)oc12 | 87.4 µM
19 | CC(C)NC(=O)c1cccc2nc(-c3ccc(COC(=O)Cc4ccc(O)c(O)c4)cc3)oc12 | 74.8 µM
20 | COc1cc(OC)cc(C(=O)OCc2ccc(-c3nc4cccc(C(=O)NCC(C)C)c4o3)cc2)c1 | 24.8 µM
21 | CC(C)CNC(=O)c1cccc2nc(-c3ccc(COC(=O)c4ccccc4[N+](=O)[O-])cc3)oc12 | 155 µM
22 | CCCCNC(=O)c1cccc2nc(-c3ccc(COC(=O)c4ccc(O)cc4)cc3)oc12 | 155 µM
23 | O=C(OCc1ccc(-c2nc3ccccc3o2)cc1)c1ccc(O)cc1 | > 200 µM
24 | O=C(Cc1ccc(O)c(O)c1)OCc1ccc(-c2nc3ccccc3o2)cc1 | > 200 µM
25 | CC(C)NC(=O)c1cccc2nc(-c3ccc(COC(=O)c4cccc(O)c4)cc3)oc12 | 144 µM
26 | CC(C)CNC(=O)c1cccc2nc(-c3ccc(COC(=O)c4cccc(O)c4)cc3)oc12 | 26.1 µM
27 | CC(C)NC(=O)c1cccc2nc(-c3ccc(COC(=O)c4ccc(O)cc4)cc3)oc12 | 46.3 µM
28 | CC(C)CNC(=O)c1cccc2nc(-c3ccc(COC(=O)c4ccc(O)cc4O)cc3)oc12 | 22.4 µM
29 | CC(C)CNC(=O)c1cccc2nc(-c3ccc(COC(=O)c4ccc([N+](=O)[O-])cc4)cc3)oc12 | 159 µM
